Experimental data reported in patent publication US12544392B2, “Treatment of adenovirus infection or disease associated with adenovirus infection” (SymBio Pharmaceuticals Limited, priority 2023, dated 2026).

Test: PK of BCV in plasma with or without concomitant cyclosporine
Type: in vivo, human
Conditions: for increase of AUCinf of BCV in plasma compared with BCV alone / increase of Cmax of BCV in plasma compared with BCV alone: healthy subjects
Excerpt: (§1) Subjects 101-12 of cohort 2, and 101-15, 101-18 and 110-06 of cohort 3 took cyclosporine, an immunosuppressive drug, during the treatment period (duration of treatment) of intravenous BCV. Prior PK studies in healthy subjects have shown a significant increase in plasma BCV exposure with concomitant intravenous infusion of BCV and cyclosporine. […] In view of the above, for the above patients taking cyclosporine, any of the doses indicated in 1.1.3 (cohorts 1-3) above is reduced to 60% for administration. Note that when cyclosporine is administered as BID (twice daily) oral or injectable form, the administration is conducted with an interval of 2 hours after the completion of intravenous BCV. In the case of continuous infusion of cyclosporine for 24 hours, no interval is needed.
as §1, with “Prior” for “Subjects 101-12 of cohort 2, and 101-15, 101-18 and 110-06 of cohort 3 took cyclosporine, an immunosuppressive drug, during the treatment period (duration of treatment) of intravenous BCV. Prior”, “4.1.3” for “1.1.3”, “4-6)” for “1-3)”

[1] = BCV IV and cyclosporine administered simultaneously
[2] = cyclosporine administered at 2 hours after the end of intravenous BCV infusion over 2 hours

## CCCCCCCCCCCCCCCCOCCCOP(=O)(O)CO[C@H](CO)Cn1ccc(N)nc1=O [BCV, [(2S)-1-(4-amino-2-oxopyrimidin-1-yl)-3-hydroxypropan-2-yl]oxymethyl-(3-hexadecoxypropoxy)phosphinic acid]
BCV administered alone
  AUCinf and Cmax of BCV in plasma, cohort 3 patients versus healthy controls: substantially the same
[1]
  increase of AUCinf of BCV in plasma compared with BCV alone: approximately 3.4 fold
  increase of Cmax of BCV in plasma compared with BCV alone: ~2.3 fold
[2]
  increase of AUCinf of BCV in plasma compared with BCV alone: approximately 1.8 fold
  increase of Cmax of BCV in plasma compared with BCV alone: ~1.3 fold
Statement in the embodiments, no test described
  effect of cyclosporine administration on the blood concentration of BCV: does not affect
